Experiment: pH stability of the ibuprofen amine salt
Assay type: physicochemical
Details: pH range in which the salt is stable, after tested

stability: stable between pH 4 and 9
Structure (SMILES): CC(C)Cc1ccc(C(C)C(=O)O)cc1.NC(CO)(CO)CO (stereo not shown) [ibuprofen amine salt]

Source: patent publication US20100022798A1, “Ibuprofen amine salts and synthesis thereof” (NATIONAL CENTRAL UNIVERSITY, priority 2008, published 2010)
